Source: patent US11053239B2, “Compounds as BLC-2-selective apoptosis-inducing agents” (Fochon Pharmaceuticals, Ltd., priority 2017, dated 2021)
Like-named read-outs stand apart in the source and are kept apart here.

Legend:
RS4; 11 cells = test: Cell proliferation assay (MTS), RS4; 11 cells; assay type: cell-based; conditions: RS4, 11 (ATCC CRL-1873) cell proliferation, 30000 cells/well, 72 h, MTS, mechanism-based readout of Bcl-2 inhibition, read-out: RS4, 11 IC50
Outline: (§1)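 RS4;11 (30000 cells/well, 72 h) and DOHH2 (5000 cells/well, 120 h) cells in RPMI-1640/10% FBS, treated at 37 °C with compound at 1.5–10000 nM final. Viability by MTS (2 h, SDS stop), absorbance 490 nm minus 650 nm reference; IC50 fitted.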

DOHH2 cells = test: Cell proliferation assay (MTS), DOHH2 cells; assay type: cell-based; conditions: DOHH2 (DSMZ ACC 47) cell proliferation, 5000 cells/well, 120 h, MTS, mechanism-based readout of Bcl-2 inhibition, read-out: DOHH2 IC50
Outline: as §1

SMILES | IC50 (RS4; 11 cells; Homo sapiens, RS4-11, 72 h) | IC50 (RS4; 11 cells) | IC50 (DOHH2 cells; Homo sapiens, DOHH-2, 120 h) | IC50 (DOHH2 cells)
CCOC(=O)N=S1(=O)CCN(C[C@H](C)Nc2ccc(S(=O)(=O)NC(=O)c3ccc(N4CCN(CC5=C(c6ccc(Cl)cc6)CC(C)(C)CC5)CC4)cc3Oc3cnc4[nH]ccc4c3)cc2S(=O)(=O)C(F)(F)F)CC1 [Example 76, ethyl (S)-(4-(2-((4-(N-(2-((1H-pyrrolo[2,3-b]pyridin-5-yl)oxy)-4-(4-((4′-chloro-5,5-dimethyl-3,4,5,6-tetrahydro-[1,1′-biphenyl]-2-yl)methyl)piperazin-1-yl)benzoyl)sulfamoyl)-2-((trifluoromethyl)sulfonyl)phenyl)amino)propyl)-1-oxido-1λ^6-thiomorpholin-1-ylidene) carbamate] | 208 nM |  | 247 nM | 
C[C@@H](CN1CCS(=N)(=O)CC1)Nc1ccc(S(=O)(=O)NC(=O)c2ccc(N3CCN(CC4=C(c5ccc(Cl)cc5)CC(C)(C)CC4)CC3)cc2Oc2cnc3[nH]ccc3c2)cc1[N+](=O)[O-] [Example 45, (S)-2-((1H-pyrrolo[2,3-b]pyridin-5-yl)oxy)-4-(4-((4′-chloro-5,5-dimethyl-3,4,5,6-tetrahydro-[1,1′-biphenyl]-2-yl)methyl)piperazin-1-yl)-N-((4-((1-(1-imino-1-oxido-1λ^6-thiomorpholino)propan-2-yl)amino)-3-nitrophenyl)sulfonyl) benzamide] | 119 nM |  | 121 nM | 
CCOC(=O)N=S1(=O)CCN(CC[C@H](C)Nc2ccc(S(=O)(=O)NC(=O)c3ccc(N4CCN(CC5=C(c6ccc(Cl)cc6)CC(C)(C)CC5)CC4)cc3Oc3cnc4[nH]ccc4c3)cc2[N+](=O)[O-])CC1 [Example 85, ethyl (S)-(4-(3-((4-(N-(2-((1H-pyrrolo[2,3-b]pyridin-5-yl)oxy)-4-(4-((4′-chloro-5,5-dimethyl-3,4,5,6-tetrahydro-[1,1′-biphenyl]-2-yl)methyl)piperazin-1-yl)benzoyl)sulfamoyl)-2-nitrophenyl)amino)butyl)-1-oxido-1λ^6-thiomorpholin-1-ylidene) carbamate] | 36 nM |  | 30 nM | 
CC1(C)CCC(CN2CCN(c3ccc(C(=O)NS(=O)(=O)c4ccc(NCC5CCC(N=S(C)(C)=O)CC5)c([N+](=O)[O-])c4)c(Oc4cnc5[nH]ccc5c4)c3)CC2)=C(c2ccc(Cl)cc2)C1 (single isomer, unassigned) [Example 50B, 2-((1H-pyrrolo[2,3-b]pyridin-5-yl)oxy)-4-(4-((4′-chloro-5,5-dimethyl-3,4,5,6-tetrahydro-[1,1′-biphenyl]-2-yl)methyl)piperazin-1-yl)-N-((4-(((4-((dimethyl(oxo)-λ^6-sulfanylidene)amino)cyclohexyl)methyl)amino)-3-nitrophenyl)sulfonyl) benzamide] |  | 4 nM |  | 13.4 nM
CC(=O)N=S1(=O)CCN(C[C@H](C)Nc2ccc(S(=O)(=O)NC(=O)c3ccc(N4CCN(CC5=C(c6ccc(Cl)cc6)CC(C)(C)CC5)CC4)cc3Oc3cnc4[nH]ccc4c3)cc2[N+](=O)[O-])CC1 [Example 40, (S)-2-((1H-pyrrolo[2,3-b]pyridin-5-yl)oxy)-N-((4-((1-(1-(acetylimino)-1-oxido-1λ^6-thiomorpholino)propan-2-yl)amino)-3-nitrophenyl)sulfonyl)-4-(4-((4′-chloro-5,5-dimethyl-3,4,5,6-tetrahydro-[1,1′-biphenyl]-2-yl)methyl)piperazin-1-yl)benzamide] | 29 nM |  | 84 nM | 
CC(C)OC(=O)N=S1(=O)CCN(C[C@H](C)Nc2ccc(S(=O)(=O)NC(=O)c3ccc(N4CCN(CC5=C(c6ccc(Cl)cc6)CC(C)(C)CC5)CC4)cc3Oc3cnc4[nH]ccc4c3)cc2[N+](=O)[O-])CC1 [Example 73, isopropyl (S)-(4-(2-((4-(N-(2-((1H-pyrrolo[2,3-b]pyridin-5-yl)oxy)-4-(4-((4′-chloro-5,5-dimethyl-3,4,5,6-tetrahydro-[1,1′-biphenyl]-2-yl)methyl)piperazin-1-yl)benzoyl)sulfamoyl)-2-nitrophenyl)amino)propyl)-1-oxido-1λ^6-thiomorpholin-1-ylidene)carbamate] | 94 nM |  | 263 nM | 
CC1(C)CCC(CN2CCN(c3ccc(C(=O)NS(=O)(=O)c4ccc(NCC5CCC(NS(C)(=N)=O)CC5)c([N+](=O)[O-])c4)c(Oc4cnc5[nH]ccc5c4)c3)CC2)=C(c2ccc(Cl)cc2)C1 (stereo not drawn) [Example 56, 4-(4-{[2-(4-chlorophenyl)-4,4-dimethylcyclohexyl-1-en-1-yl]methyl}piperazin-1-yl)-N-(4-{[(4-methanesulfono-imidamidocyclohexyl)methyl]amino}-3-nitrobenzenesulfonyl)-2-{1H-pyrrolo[2,3-b]pyridine-5-yloxy}benzamide] |  | 12 nM |  | 50 nM
C[C@@H](CCN1CCS(=O)(=NC(=O)C2CC2)CC1)Nc1ccc(S(=O)(=O)NC(=O)c2ccc(N3CCN(CC4=C(c5ccc(Cl)cc5)CC(C)(C)CC4)CC3)cc2Oc2cnc3[nH]ccc3c2)cc1S(=O)(=O)C(F)(F)F [Example 91, (S)-2-((1H-pyrrolo[2,3-b]pyridin-5-yl)oxy)-4-(4-((4′-chloro-5,5-dimethyl-3,4,5,6-tetrahydro-[1,1′-biphenyl]-2-yl)methyl)piperazin-1-yl)-N-((4-((4-(1-((cyclopropanecarbonyl)imino)-1-oxido-1λ^6-thiomorpholino)butan-2-yl)amino)-3-((trifluoromethyl)sulfonyl)phenyl)sulfonyl)benzamide] | 119 nM |  | 255 nM | 

More lines, in order of falling IC50 (RS4; 11 cells; Homo sapiens, RS4-11, 72 h), values ahead:

IC50 (RS4; 11 cells; Homo sapiens, RS4-11, 72 h) | IC50 (RS4; 11 cells) | SMILES | IC50 (DOHH2 cells; Homo sapiens, DOHH-2, 120 h) | IC50 (DOHH2 cells)
22 nM |  | C[C@@H](CCN1CCS(=O)(=NC#N)CC1)Nc1ccc(S(=O)(=O)NC(=O)c2ccc(N3CCN(CC4=C(c5ccc(Cl)cc5)CC(C)(C)CC4)CC3)cc2Oc2cnc3[nH]ccc3c2)cc1[N+](=O)[O-] [Example 95, (S)-2-((1H-pyrrolo[2,3-b]pyridin-5-yl)oxy)-4-(4-((4′-chloro-5,5-dimethyl-3,4,5,6-tetrahydro-[1,1′-biphenyl]-2-yl)methyl)piperazin-1-yl)-N-((4-((4-(1-(cyanoimino)-1-oxido-1λ^6-thiomorpholino)butan-2-yl)amino)-3-nitrophenyl)sulfonyl) benzamide] | 71 nM | 
21 nM |  | CCS(=O)(CC)=NC1CC(CNc2ccc(S(=O)(=O)NC(=O)c3ccc(N4CCN(CC5=C(c6ccc(Cl)cc6)CC(C)(C)CC5)CC4)cc3Oc3cnc4[nH]ccc4c3)cc2[N+](=O)[O-])C1 (stereo not drawn) [Example 60, 2-((1H-pyrrolo[2,3-b]pyridin-5-yl)oxy)-4-(4-((4′-chloro-5,5-dimethyl-3,4,5,6-tetrahydro-[1,1′-biphenyl]-2-yl)methyl)piperazin-1-yl)-N-((4-(((3-((diethyl(oxo)-λ^6-sulfanylidene)amino)cyclobutyl)methyl)amino)-3-nitrophenyl)sulfonyl)benzamide] | 49 nM | 
7 nM |  | CCC(=O)N=S1(=O)CCN(CC[C@H](C)Nc2ccc(S(=O)(=O)NC(=O)c3ccc(N4CCN(CC5=C(c6ccc(Cl)cc6)CC(C)(C)CC5)CC4)cc3Oc3cnc4[nH]ccc4c3)cc2[N+](=O)[O-])CC1 [Example 81, (S)-2-((1H-pyrrolo[2,3-b]pyridin-5-yl)oxy)-4-(4-((4′-chloro-5,5-dimethyl-3,4,5,6-tetrahydro-[1,1′-biphenyl]-2-yl)methyl)piperazin-1-yl)-N-((3-nitro-4-((4-(1-oxido-1-(propionylimino)-1λ^6-thiomorpholino)butan-2-yl)amino)phenyl)sulfonyl) benzamide] | 30 nM | 
7 nM |  | CC1(C)CCC(CN2CCN(c3ccc(C(=O)NS(=O)(=O)c4ccc(NCC5CCC(N=S6(=O)CCCC6)CC5)c([N+](=O)[O-])c4)c(Oc4cnc5[nH]ccc5c4)c3)CC2)=C(c2ccc(Cl)cc2)C1 (stereo not drawn) [Example 53, 2-((1H-pyrrolo[2,3-b]pyridin-5-yl)oxy)-4-(4-((4′-chloro-5,5-dimethyl-3,4,5,6-tetrahydro-[1,1′-biphenyl]-2-yl)methyl)piperazin-1-yl)-N-((3-nitro-4-(((4-((1-oxidotetrahydro-1λ^6-thiophen-1-ylidene)amino)cyclohexyl)methyl)amino)phenyl)sulfonyl)benzamide] | 11 nM | 
